For one assay, the target named is T1, Human DYRK1A (Homo sapiens, UniProt Q13627).
T1 construct: purchased Invitrogen PV3997
As to the kind of experiment: DYRK1A Kinase TR-FRET (IMAP-Tb) Assay. In kind it is biochemical. To be noted: TR-FRET (IMAP-Tb); ATP 70 μM; 37° C., 60 minutes; average of multiple runs; read-out: Enzyme IC50 (μM) DYRK1A. An excerpt:
DYRK1A Kinase TR-FRET (IMAP-Tb) Assay
The kinase TR-FRET (IMAP-Tb) assay uses a fluorescence labeled substrate peptide in the kinase reaction. Upon phosphorylation by the kinase, phosphopeptide is produced, which will be detected by the binding solution provided in IMAP TR-FRET binding kit. After the completion of the kinase reaction, the reaction will be stopped by adding the binding solution containing terbium tracer. This tracer is immobilized on the surface of the IMAP beads, which also contain metal ions on the beads that bind to the phospho-groups of the products. Thus the phosphorylated product of the reaction can enter into close proximity to the tracer, producing resonance energy transfer. Due to the long lifetime of terbium (Tb) fluorescence the detection can be run in time resolved mode, which virtually eliminates fluorescence interference from assay components or compounds.
The TR-FRET signal measurement from this assay, given as an IC50 measurement, is a measure of a test compound's ability to interfere with the phosphorylation of the peptide substrate, that is it inhibits the phosphorylation of the substrate peptide by DYRK1A, and is thus a measure of the test compound's ability to inhibit the activity of DYRK1A.
• 1. Human DYRK1A: from Invitrogen. Part #PV3997 • 2. Substrate Peptide: […] • 3. IMAP TR-FRET IPP Explorer Kit: from Molecular Devices. Part #R8157 • 4. Kinase Assay Buffer (KAB): 10 mM HEPES pH 7.0, 50 mM NaCl, 5 mM MgCl2, 1 mM DTT, 1 mM NaVO4, 200 μg/mL BSA (0.02%) • 5. Assay Plate: Remp polypropylene clear 384-well microplate. […] Detection Plate: Costa black 384-well microplate. […] Transfer 1.5 μL of 20× compound solution to each well of an assay plate. • 2. Add to each well 22.5 μL of KAB Buffer. • 3. Add to each well 3 μL of the solution of DYRK1A and ATP. […] Add to each well 3 μL of the substrate peptide. The assay concentration is 1.0 μM • 5. Incubate the assay plates at 37° C. for 60 minutes. • 6. Add 18 μL of Detection Solution (1:800 diluted Progress bead stock, 1:400 diluted Tb stock, 80% Buffer A, and 20% Buffer B) into each well of detection plates. • 7. Transfer 6 μL of assay solution from the assay plate to the detection plate. • 8. Shake detection plates for 30 minutes. • 9. Read plates in Envision with wavelength set at excitation 340 nm for Tb, emission 490 nm, and […].
In general terms: TR-FRET usually uses a lanthanide donor and a delayed reading to cut background.

For the next assay, the target named is T2, Human DYRK1B (Homo sapiens, UniProt Q9Y463).
T2 construct: purchased Invitrogen PR8350B (former PV4649)
As to the kind of experiment: DYRK1B Kinase TR-FRET (IMAP-Tb) Assay. In kind it is biochemical. To be noted: TR-FRET (IMAP-Tb); ATP 70 μM; 37° C., 60 minutes; average of multiple runs; read-out: Enzyme IC50 (μM) DYRK1B. An excerpt:
DYRK1B Kinase TR-FRET (IMAP-Tb) Assay The kinase TR-FRET (IMAP-Tb) assay uses a fluorescence labeled substrate peptide in the kinase reaction. Upon phosphorylation by the kinase, phosphopeptide is produced, which will be detected by the binding solution provided in IMAP TR-FRET binding kit. After the completion of the kinase reaction, the reaction will be stopped by adding the binding solution containing terbium tracer. This tracer is immobilized on the surface of the IMAP beads, which also contain metal ions on the beads that bind to the phospho-groups of the products. Thus the phosphorylated product of the reaction can enter into close proximity to the tracer, producing resonance energy transfer. Due to the long lifetime of terbium (Tb) fluorescence the detection can be run in time resolved mode, which virtually eliminates fluorescence interference from assay components or compounds. The TR-FRET signal measurement from this assay, given as an IC50 measurement, is a measure of a test compound's ability to interfere with the phosphorylation of the peptide substrate, that is it inhibits the phosphorylation of the substrate peptide by DYRK1B, and is thus a measure of the test compound's ability to inhibit the activity of DYRK1B. […] Human DYRK1B: from Invitrogen. Part #PR8350B (former PV4649) • 2. Substrate Peptide: in-house synthesized: RRRFRPASPLRGPPK • 3. IMAP TR-FRET IPP Explorer Kit: from Molecular Devices. Part #R8157 • 4. Kinase Assay Buffer (KAB): 10 mM HEPES pH 7.0, 50 mM NaCl, 5 mM MgCl2, 1 mM DTT, 1 mM NaVO4, 200 μg/mL BSA (0.02%) • 5. Assay Plate: Remp polypropylene clear 384-well microplate. Cat#23490-102 • 6. Detection Plate: Costa black 384-well microplate. Cat #3710 Assay Procedure: This assay was performed as follows: • 1. Transfer 1.5 μL of 20× compound solution to each well of an assay plate. • 2. Add to each well 22.5 μL of KAB Buffer. • 3. Add to each well 3 μL of the solution of DYRK1B and ATP. […] Add to each well 3 μL of the substrate peptide. The assay concentration is 1.0 μM • 5. Incubate the assay plates at 37° C. for 60 minutes. • 6. Add 18 μL of Detection Solution (1:800 diluted Progress bead stock, 1:400 diluted Tb stock, 80% Buffer A, and 20% Buffer B) into each well of detection plates. • 7. Transfer 6 μL of assay solution from the assay plate to the detection plate. • 8. Shake detection plates for 30 minutes. • 9. Read plates in Envision with wavelength set at excitation 340 nm for Tb, emission 490 nm, and […] 520 nm. • 10. Calculation: TR-FRET Signal=(Reading at […]/Reading at 490 nM)×2000000

Assay [1] deals with SW620 human colon cancer cells. The assay can be described thus: SW620 Cell Viability Assay. To be noted: SW-620, 96 h, 4 days incubation, CellTiter-Glo Luminescent Cell Viability Assay, read-out: Cellular EC50 (μM) SW620. The format is cell-based. The procedure: SW620 Cell Viability Assay
1. Cell Plate Preparation: SW620 human colon cancer cells (known to express DYRK1B), obtained from ATCC, were seeded into 96-well plates at 3×10^3 cells/well in 50 μL of media. • Harvested the required number of cells (counts & viability determined by Guava Viacount). • Centrifuge cells to pellet and removed supernant. • Resuspended in growth media (50 μL/well) & pipetted thoroughly to break up clumps. • Setup for ˜100 wells/plate, therefore, VT=5 mL/plate @ […]. 1A. Some cells (S—) were allowed to attach for 24 hrs, serum starved for 48 hrs, and then followed with drug treatments. Test compound solution were prepared in regular corresponding media supplemented with serum. 2. Test Compound Preparation: Test compounds were solubilized in either DMSO or media and prepared at various stock concentrations. • All compounds were incubated at 37° C. for 30 minutes and vortexed. • (5 mM stocks of test compound were prepared for non-soluble compounds)
• The 10 mM test compound stock was diluted to a concentration of 100× the final Cmax concentration. • Then the test compound stock is diluted 50-fold in media and/or second compound for a final Cmax concentration in the test compound plate. • The Cmax in the test compound plate (2% DMSO) is 2-fold higher than the final Cmax in the cell plate (60 uL titrations were 1:3). 4. Viability Assay: This assay was performed as follows: • Transfer 50 μL of test compound solution per well from the test compound plate onto the cell plate prepared in Step #1. • Mix the plate with treated cells by pipetting up and down three times with 200 μL multi-channel pipette. • Incubate the cells in 5% CO2 incubator @ 37° C. for 4 days. • Run the CellTiter-Glo™ Luminescent Cell Viability Assay.
The results of this assay, given as EC50 values, indicate the concentration of test compound that inhibits tumor cell proliferation by 50%.

Eleven compounds from patent US20120184562A1, “1,6- AND 1,8-NAPHTHYRIDINES” (priority 2011, published 2012) can be followed below.

Where a name gives a salt, the structure may show the parent alone.

T2 sequence (Q9Y463 whole entry): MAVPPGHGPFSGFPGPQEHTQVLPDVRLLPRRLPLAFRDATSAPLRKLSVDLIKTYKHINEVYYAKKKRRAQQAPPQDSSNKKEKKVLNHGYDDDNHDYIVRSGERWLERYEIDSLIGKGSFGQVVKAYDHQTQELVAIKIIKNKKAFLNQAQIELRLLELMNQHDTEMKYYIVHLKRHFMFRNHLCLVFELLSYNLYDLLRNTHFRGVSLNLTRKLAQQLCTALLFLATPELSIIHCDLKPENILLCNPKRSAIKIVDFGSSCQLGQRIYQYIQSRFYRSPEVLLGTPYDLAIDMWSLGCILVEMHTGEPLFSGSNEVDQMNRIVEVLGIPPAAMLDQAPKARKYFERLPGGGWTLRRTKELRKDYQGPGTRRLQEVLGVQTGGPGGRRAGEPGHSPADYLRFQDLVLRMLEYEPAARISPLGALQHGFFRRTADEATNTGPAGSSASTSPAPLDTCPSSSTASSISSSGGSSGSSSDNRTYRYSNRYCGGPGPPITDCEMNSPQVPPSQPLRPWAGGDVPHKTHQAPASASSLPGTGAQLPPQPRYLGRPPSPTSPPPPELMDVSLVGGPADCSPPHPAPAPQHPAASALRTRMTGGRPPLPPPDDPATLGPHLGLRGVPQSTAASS

Regarding `COc1cc2[nH]c(=O)c(C(=O)Nc3cc(C(=O)NCc4ccccc4)ccc3C)cc2cn1` [Example 33, 7-Methoxy-2-oxo-1,2-dihydro-[1,6]naphthyridine-3-carboxylic acid (5-benzylcarbamoyl-2-methyl-phenyl)-amide], the IC50 (in general, the concentration needed to halve the response being measured) at Human DYRK1A turned out to be 2.15 µM; on Human DYRK1B, 0.484 µM. The EC50 – broadly, the concentration that produces a half-maximal response – in assay [1] was 1.47 µM.
The like results for `COc1cc2[nH]c(=O)c(C(=O)Nc3cc(C(=O)NC(CCN)c4ccccc4)ccc3Cl)cc2cn1` (stereo not drawn) [Example 69, 7-Methoxy-2-oxo-1,2-dihydro-[1,6]naphthyridine-3-carboxylic acid [5-(3-amino-1-phenyl-propylcarbamoyl)-2-chloro-phenyl]-amide; hydrochloride] were, in that order, 0.0124 µM, 0.0137 µM and 0.256 µM.
The like results for `COc1cc2[nH]c(=O)c(C(=O)Nc3cc(C(=O)NC(CN)c4ccsc4)ccc3C)cc2cn1` (stereo not drawn) [Example 59, 7-Methoxy-2-oxo-1,2-dihydro-[1,6]naphthyridine-3-carboxylic acid [5-(2-amino-1-thiophen-3-yl-ethylcarbamoyl)-2-methyl-phenyl]-amide; hydrochloride] were, in that order, 0.0113 µM, 0.0308 µM and 0.299 µM.
The like results for `COC(=O)c1ccc(Cl)c(NC(=O)c2cc3cnc(N4CCN(C)CC4)cc3[nH]c2=O)c1` [Example 73, 4-Chloro-3-{[7-(4-methyl-piperazin-1-yl)-2-oxo-1,2-dihydro-[1,6]naphthyridine-3-carbonyl]-amino}-benzoic acid methyl ester] were, in that order, 0.425 µM, 0.96 µM and above 10 µM.
For `COc1cc2[nH]c(=O)c(C(=O)Nc3cc(C(=O)NCc4ccsc4)ccc3C)cc2cn1` [Example 38, 7-Methoxy-2-oxo-1,2-dihydro-[1,6]naphthyridine-3-carboxylic acid {2-methyl-5-[(thiophen-3-ylmethyl)-carbamoyl]-phenyl}-amide], the values for the IC50 at Human DYRK1A and on Human DYRK1B were 0.266 µM and 0.424 µM, respectively. Also, in assay [1], the EC50 was above 10 µM.
Consider `COc1cc2[nH]c(=O)c(C(=O)Nc3cc(C(=O)NCc4cccs4)ccc3C)cc2cn1` [Example 37, 7-Methoxy-2-oxo-1,2-dihydro-[1,6]naphthyridine-3-carboxylic acid {2-methyl-5-[(thiophen-2-ylmethyl)-carbamoyl]-phenyl}-amide], for which the IC50 on Human DYRK1A was 0.588 µM; on Human DYRK1B, 0.917 µM. Besides, the EC50 in assay [1] is 0.47 µM.
Turning to `COc1cc2[nH]c(=O)c(C(=O)Nc3cc(C(=O)NC(CN)c4cccc(Cl)c4)ccc3C)cc2cn1` (stereo not drawn) [Example 57, 7-Methoxy-2-oxo-1,2-dihydro-[1,6]naphthyridine-3-carboxylic acid {5-[2-amino-1-(3-chloro-phenyl)-ethylcarbamoyl]-2-methyl-phenyl}-amide; hydrochloride], the IC50 on Human DYRK1A is 0.0512 µM; at Human DYRK1B, 0.146 µM. Also, in assay [1], the EC50 came to 0.496 µM.
The like results for `COc1cc2[nH]c(=O)c(C(=O)Nc3cc(C(=O)NC(CN)c4cccc(Cl)c4)ccc3Cl)cc2cn1` (stereo not drawn) [Example 51, 7-Methoxy-2-oxo-1,2-dihydro-[1,6]naphthyridine-3-carboxylic acid {5-[2-amino-1-(3-chloro-phenyl)-ethylcarbamoyl]-2-chloro-phenyl}-amide; hydrochloride] were, in that order, 0.0198 µM, 0.119 µM and 0.373 µM.
In the case of `COc1ccc2cc(C(=O)Nc3cc(C(=O)NCc4cccc(Cl)c4)ccc3C)c(=O)[nH]c2n1` [Example 99, N-(5-(3-Chlorobenzylcarbamoyl)-2-methylphenyl)-7-methoxy-2-oxo-1,2-dihydro-1,8-naphthyridine-3-carboxamide], the values for the IC50 at Human DYRK1A and on Human DYRK1B were 0.123 µM and 0.235 µM, respectively. In addition, the EC50 in assay [1] was above 10 µM.
The like results for `COC(=O)c1ccc(Cl)c(NC(=O)c2cc3ccc(OC)nc3[nH]c2=O)c1` [Example 90, 4-Chloro-3-[(7-methoxy-2-oxo-1,2-dihydro-[1,8]naphthyridine-3-carbonyl)-amino]-benzoic acid methyl ester] were, in that order, above 10 µM, 0.168 µM and above 10 µM.
The like results for `COc1cc2[nH]c(=O)c(C(=O)Nc3cc(C(=O)NC(CCN)c4cccc(Cl)c4)ccc3C)cc2cn1` (stereo not drawn) [Example 65, 7-Methoxy-2-oxo-1,2-dihydro-[1,6]naphthyridine-3-carboxylic acid {5-[3-amino-1-(3-chloro-phenyl)-propylcarbamoyl]-2-methyl-phenyl}-amide; hydrochloride] were, in that order, 0.0974 µM, 0.21 µM and 0.915 µM.
